Experimental data: patent US20100184596A1, “METHOD FOR THE CONTROL OF WEEDS IN TURF” (SYNGENTA CROP PROTECTION, INC., priority 2007, published 2010)

Columns and labels:
Paspalum sp. = assay: Weed control via post emergence spray, in common centipedegrass (Table B5.1); type: in vivo
Method: The weed control efficacy of the compound of formula I was tested. The compound was applied via post emergence spray to a range of weeds, at various rates and spray treatment treatment regimes. Percentage weed control assessments were taken at various timepoints.

[1] = test system: St. Augustinegrass v. Delmar; assay: Phytotoxicity via granule application (Table B3.1); type: in vivo

SMILES: COCCOCc1nc(C(F)(F)F)ccc1C(=O)C1=C(O)C2CCC(C2)C1=O (stereo not shown) [Formula I, 4-Hydroxy-3-[2-(2-methoxyethoxymethyl)-6-trifluoromethylpyridine-3-carbonyl]-bicyclo[3.2.1]oct-3-en-2-one]
- % control (Paspalum sp.; 1 appl, 140 g ai/ha, 5 DAT): 16.67%
- % control (Paspalum sp.; 1 appl, 140 g ai/ha, 13 DAT): 60.00%
- % control (Paspalum sp.; 1 appl, 140 g ai/ha, 21 DAT): 55.00%
- % control (Paspalum sp.; 1 appl, 140 g ai/ha, 27 DAT): 46.67%
- % control (Paspalum sp.; 1 appl, 140 g ai/ha, 35 DAT): 21.67%
- % control (Paspalum sp.; 1 appl, 140 g ai/ha, 42 DAT): 6.67%
- % control (Paspalum sp.; 1 appl, 140 g ai/ha, 61 DAT): 13.33%
- % control (Paspalum sp.; 1 appl, 280 g ai/ha, 5 DAT): 21.67%
- % control (Paspalum sp.; 1 appl, 280 g ai/ha, 13 DAT): 71.67%
- % control (Paspalum sp.; 1 appl, 280 g ai/ha, 21 DAT): 70.00%
- % control (Paspalum sp.; 1 appl, 280 g ai/ha, 27 DAT): 60.00%
- % control (Paspalum sp.; 1 appl, 280 g ai/ha, 35 DAT): 43.33%
- % control (Paspalum sp.; 1 appl, 280 g ai/ha, 42 DAT): 20.00%
- % control (Paspalum sp.; 1 appl, 280 g ai/ha, 61 DAT): 18.33%
- % control (Paspalum sp.; 2 appl, 140 g ai/ha, 5 DAT): 20.00%
- % control (Paspalum sp.; 2 appl, 140 g ai/ha, 13 DAT): 61.67%
- % control (Paspalum sp.; 2 appl, 140 g ai/ha, 21 DAT): 61.67%
- % control (Paspalum sp.; 2 appl, 140 g ai/ha, 27 DAT): 56.67%
- % control (Paspalum sp.; 2 appl, 140 g ai/ha, 35 DAT): 83.33%
- % control (Paspalum sp.; 2 appl, 140 g ai/ha, 42 DAT): 81.67%
- % control (Paspalum sp.; 2 appl, 140 g ai/ha, 61 DAT): 70.00%
- % control (Paspalum sp.; 2 appl, 280 g ai/ha, 5 DAT): 20.00%
- % control (Paspalum sp.; 2 appl, 280 g ai/ha, 13 DAT): 68.33%
- % control (Paspalum sp.; 2 appl, 280 g ai/ha, 21 DAT): 68.33%
- % control (Paspalum sp.; 2 appl, 280 g ai/ha, 27 DAT): 58.33%
- % control (Paspalum sp.; 2 appl, 280 g ai/ha, 35 DAT): 91.67%
- % control (Paspalum sp.; 2 appl, 280 g ai/ha, 42 DAT): 95.00%
- % control (Paspalum sp.; 2 appl, 280 g ai/ha, 61 DAT): 81.67%
- % phytotoxicity ([1]; Granule A (inert), 112 g ai/ha, 11 DAT): 1.30%
- % phytotoxicity ([1]; Granule A (inert), 112 g ai/ha, 15 DAT): 0.70%
- % phytotoxicity ([1]; Granule A (inert), 112 g ai/ha, 28 DAT): 0.00%
- % phytotoxicity ([1]; Granule A (inert), 280 g ai/ha, 20 DAT): 0.00%
- % phytotoxicity ([1]; Granule A (inert), 280 g ai/ha, 28 DAT): 0.00%
- % phytotoxicity ([1]; Granule B (fertiliser), 112 g ai/ha, 20 DAT): 1.30%
- % phytotoxicity ([1]; Granule B (fertiliser), 112 g ai/ha, 28 DAT): 0.00%
- % phytotoxicity ([1]; Granule B (fertiliser), 280 g ai/ha, 7 DAT): 36.70%
- % phytotoxicity ([1]; Granule B (fertiliser), 280 g ai/ha, 15 DAT): 11.70%
- % phytotoxicity ([1]; Granule B (fertiliser), 280 g ai/ha, 20 DAT): 5.00%
- % phytotoxicity ([1]; Granule B (fertiliser), 280 g ai/ha, 28 DAT): 1.70%
- % phytotoxicity ([1]; Spray, 112 g ai/ha, 7 DAT): 36.70%
- % phytotoxicity ([1]; Spray, 112 g ai/ha, 11 DAT): 20.00%
- % phytotoxicity ([1]; Spray, 112 g ai/ha, 15 DAT): 9.30%
- % phytotoxicity ([1]; Spray, 112 g ai/ha, 20 DAT): 4.00%
- % phytotoxicity ([1]; Spray, 112 g ai/ha, 28 DAT): 0.00%
- % phytotoxicity ([1]; Spray, 280 g ai/ha, 7 DAT): 60.00%
- % phytotoxicity ([1]; Spray, 280 g ai/ha, 11 DAT): 43.30%
- % phytotoxicity ([1]; Spray, 280 g ai/ha, 15 DAT): 20.00%
- % phytotoxicity ([1]; Spray, 280 g ai/ha, 20 DAT): 10.00%
- % phytotoxicity ([1]; Spray, 280 g ai/ha, 28 DAT): 3.30%
